# Data from patent publication US6329547A, “Vinylbenzene derivatives” (Santen Pharmaceutical Co., Ltd., priority 1998, dated 2001).
# Legend:
# [1] = test system: bovine cultured trabecular meshwork cells; assay: Effects on morphology of trabecular meshwork cells (change in cell area by image analysis); type: cell-based; conditions: Bos taurus, 3 h, 37° C., three hours, read-out: EC50 (concentration required to reduce the cell area of the trabecular meshwork cells by 50%)
# From the text: A possibility has been reported that drugs having effects of increasing aqueous humor outflow can be found by evaluating effects of drugs on morphology of cultured trabecular meshwork cells (Invest. Ophthalmol. Vis. Sci., 33, 2631-2640 (1992)). Accordingly, effects of the present compounds on morphology of bovine cultured trabecular meshwork cells were studied in the similar manner to the method described in the above-mentioned literature. Experimental Method Morphological changes in bovine cultured trabecular meshwork cells by adding the present compounds were quantitatively evaluated by image analysis. […] Bovine trabecular meshwork cells (passage number 1 to 5) cultured in a basal medium for mammalian cell culture d-MEM (Dulbecco's Modified Eagle Medium, manufactured by Gibco Co., Ltd.) containing fetal bovine serum (10%), amphotericin B (2.5 μg/ml) and gentamicin (50 μg/ml) were treated with a trypsin-EDTA solution (0.05% trypsin, 0.53 mM EDTA·4 Na) 24 hours before the later drug treatment and seeded in a 24-well plate (10^4 cells/well). Twelve hours before the later drug treatment, the cells were washed with phosphate-buffered physiological saline, and then the medium was replaced by D-MEM containing amphotericin B (2.5 μg/ml) and gentamicin (50 μg/ml) (hereinafter referred to as "medium A"). […] A test compound was dissolved in dimethyl sulfoxide (DMSO), and the medium A was added to the solution, followed by sterilizing the solution by filtration. The medium A was further added to the solution to dilute it at a prescribed concentration. This diluted solution was maintained isothermally under a 5% carbon dioxide gas atmosphere at 37° C. for one hour, from one hour before the later drug treatment to prepare a test compound solution. Method of Measurement First, cells were photographed using a well-scanner one hour before the drug treatment. Next, the medium of the cells was replaced by the test compound solution, and the cells were treated with the drug and incubated under a 5% carbon dioxide gas atmosphere at 37° C. for three hours. Then, the same cells as those photographed one hour before the drug treatment were photographed using the well-scanner. Image Analysis Photographed cell images were incorporated from the photographs into an image analysis system with a CCD camera (manufactured by […] Co., Ltd.). Outlines of the incorporated cell images were traced, and areas were measured. Degrees of the morphological changes made by the test compounds on the trabecular meshwork cells are expressed by the following rates of changes in areas (%).
# [2] = test system: laser-induced high intraocular pressure monkey models (intraocular pressure); assay: Intraocular pressure-lowering effects by instillation using laser-induced high intraocular pressure animal models; type: in vivo, cynomolgus monkey; conditions: for Intraocular pressure change difference: 0.3% solution instilled twice a day, six hours after morning instillation, vs vehicle, average of five eyes
# From the text: A method of evaluating intraocular pressure-lowering effects of the drugs by instilling them into laser-induced high intraocular pressure monkey models has been reported (Arch. Opththalmol., 105, 249-252 (1987)). Accordingly, intraocular pressure-lowering effects by instilling the present compound were studied in the similar manner to the method described in the above-mentioned literature.
# Male cynomolgus monkeys weighing 5 to 6 kg were used for experiment. Five eyes of four monkeys of which intraocular pressure had been elevated by irradiating trabecular meshwork of the monkeys at 100 to 150 spots every one week with an argon laser (Coherent Radiation, Models 800) were used. Laser irradiation conditions were set at 1000 mW and 0.2 sec.
# Preparation of Test Compound Solution
# A test compound was dissolved in purified water, then concentrated glycerin and sodium chloride were added to the solution to adjust osmotic pressure to 1, and 0.1 M aqueous sodium hydroxide solution was added thereto to adjust pH to 7.4 and to prepare a 0.3% solution. Then, the solution was sterilized by filtration to prepare a test compound solution.
# Method of Administering Drugs
# First, in order to study effects of a vehicle on intraocular pressure, only vehicle was instilled twice a day (at 10 a.m. and 5 p.m.) for one week continuously. Then, the test compound solution was instilled twice a day (at 10 a.m. and 5 p.m.) for one week continuously.
# Intraocular pressure was measured with an applanation tonometer before administering the drug and a prescribed period after the instillation. Chlorpromazine (1 mg/kg) was administered intramuscularly to the cynomolgus monkey one hour before the measurement to sedate the monkey, one drop of a 0.4% oxybuprocaine hydrochloride eyedrops, which is a local anesthetic, was instilled into the monkey, and then the intraocular pressure was measured.
# Intraocular pressure change difference (mmHg)=[IOP(D-6)-IOP(D-0)]-[IOP(V-6)-IOP(V-0)]
# IOP(D-6): Intraocular pressure measured six hours after the morning instillation of the test compound solution
# IOP(D-0): Intraocular pressure measured before administering the test compound solution
# IOP(V-6): Intraocular pressure measured six hours after the morning instillation of the vehicle
# IOP(V-0): Intraocular pressure measured before administering the vehicle
# [3] = test system: cynomolgus monkeys (intraocular pressure); assay: Intraocular pressure-lowering effects by anterior chamber administration; type: in vivo, cynomolgus monkey; conditions: 10 μl of 10^-3 M, 1% DMSO into anterior chamber, vehicle in other eye
# Protocol: Healthy male cynomolgus monkeys weighing 4.0 to 7.0 kg and being four to seven years old were used as experimental animals.
# A test compound to be used was dissolved in dimethyl sulfoxide (DMSO), and then phosphate-buffered physiological saline was added to the solution to dilute it at a prescribed concentration (10^-3 M, 1% DMSO), followed by sterilizing the solution by filtration to prepare a test compound solution.
# Only vehicle was administered into the other eye.
# The intraocular pressure was measured with an applanation tonometer immediately before and prescribed periods after administering the test compound. […]
# IOP(D-t): Intraocular pressure of the eye into which the test compound was administered, measured (t) hours after administering the test compound
# IOP(D-0): Intraocular pressure of the eye into which the test compound was administered, measured immediately before administering the test compound
# IOP(V-t): Intraocular pressure of the eye into which the vehicle was administered, measured (t) hours after administering the vehicle
# IOP(V-0): Intraocular pressure of the eye into which the vehicle was administered, measured immediately before administering the vehicle
# [4] = test system: trabecular meshwork cells; conditions: Japanese Examined Patent Publication No. 13013/1995; cited from earlier work
smiles,measurement,setting,value
"C=C(C(=O)c1ccc(/C=C/C(=O)O)cc1)c1c(F)c(F)c(F)c(F)c1F [Compound No. 8-1, 4-[2-(2,3,4,5,6-Pentafluorophenyl)acryloyl]cinnamic acid]",EC50,[1],660 nM
"C=C(C(=O)c1ccc(/C=C/C(=O)O)cc1)c1ccc([N+](=O)[O-])cc1 [Compound No. 8-2, 4-[2-(4-Nitrophenyl)acryloyl]cinnamic acid]",EC50,[1],1700 nM
"C=C(C(=O)c1ccc(/C=C/C(=O)O)cc1)c1ccccc1 [Compound No. 8-7, 4-(2-Phenylacryloyl)cinnamic acid]",Intraocular pressure change difference,[2]; 1st day,+5.8 mmHg
same,Intraocular pressure change difference,[2]; 2nd day,-7.6 mmHg
same,Intraocular pressure change difference,[2]; 3rd day,-6.6 mmHg
same,Intraocular pressure change difference,[2]; 4th day,-1.2 mmHg
same,Intraocular pressure change difference,[2]; 5th day,-6.6 mmHg
same,Intraocular pressure change difference,[2]; 6th day,-8.6 mmHg
same,Intraocular pressure change difference,[2]; 7th day,-2.8 mmHg
same,intraocular pressure-lowering effect (in words),"[2]; instillation, 0.3% solution twice a day for one week",excellent intraocular pressure-lowering effect
same,disorder in an anterior segment of the eye,"[2]; throughout all instillation periods, 0.3% solution twice a day for one week",No disorder was recognized in an anterior segment of the eye
same,EC50,[1],810 nM
same,Maximum intraocular pressure-lowering value,[3]; average value of six samples,7.0 mmHg
"C=C(C(=O)c1ccc(/C=C(\C)C(=O)O)cc1)c1ccccc1 [Compound No. 8-9, α-Methyl-4-(2-phenylacryloyl)cinnamic acid]",EC50,[1],3900 nM
"C=C(C(=O)c1ccc(/C(C)=C/C(=O)O)cc1)c1ccccc1 [Compound No. 8-10, β-Methyl-4-(2-phenylacryloyl)cinnamic acid]",EC50,[1],2900 nM
"C=C(CC)C(=O)c1ccc(OCC(=O)O)c(Cl)c1Cl [Ethacrynic acid, reference compound]",effect on intraocular pressure and trabecular meshwork cells reported in the literature,[4],lowering intraocular pressure by making a morphological change in trabecular meshwork cells and increasing the rate of aqueous humor outflow
same,EC50,[1],62000 nM
same,Maximum intraocular pressure-lowering value,[3]; average value of five samples,2.0 mmHg
